Measurements published in patent US10093627B2, “Tetrahydroquinoline derivatives and their use as Epac inhibitors” (Institut National de la Sante et de la Recherche Medicale …, priority 2012, dated 2018).

Legend:
[1] = molecular target: T1, Epac1 (Homo sapiens, UniProt O95398); test: In vitro GEF activity (initial velocity of GDP exchange on Rap1A) of Epac1; type: biochemical
T1 construct: Recombinant human Epac1 (residues 149-881), deleted of its Dishevelled, Egl-10, and Pleckstrin (DEP) domain; made in house
T1 sequence (O95398 149-881 isoform O95398-3): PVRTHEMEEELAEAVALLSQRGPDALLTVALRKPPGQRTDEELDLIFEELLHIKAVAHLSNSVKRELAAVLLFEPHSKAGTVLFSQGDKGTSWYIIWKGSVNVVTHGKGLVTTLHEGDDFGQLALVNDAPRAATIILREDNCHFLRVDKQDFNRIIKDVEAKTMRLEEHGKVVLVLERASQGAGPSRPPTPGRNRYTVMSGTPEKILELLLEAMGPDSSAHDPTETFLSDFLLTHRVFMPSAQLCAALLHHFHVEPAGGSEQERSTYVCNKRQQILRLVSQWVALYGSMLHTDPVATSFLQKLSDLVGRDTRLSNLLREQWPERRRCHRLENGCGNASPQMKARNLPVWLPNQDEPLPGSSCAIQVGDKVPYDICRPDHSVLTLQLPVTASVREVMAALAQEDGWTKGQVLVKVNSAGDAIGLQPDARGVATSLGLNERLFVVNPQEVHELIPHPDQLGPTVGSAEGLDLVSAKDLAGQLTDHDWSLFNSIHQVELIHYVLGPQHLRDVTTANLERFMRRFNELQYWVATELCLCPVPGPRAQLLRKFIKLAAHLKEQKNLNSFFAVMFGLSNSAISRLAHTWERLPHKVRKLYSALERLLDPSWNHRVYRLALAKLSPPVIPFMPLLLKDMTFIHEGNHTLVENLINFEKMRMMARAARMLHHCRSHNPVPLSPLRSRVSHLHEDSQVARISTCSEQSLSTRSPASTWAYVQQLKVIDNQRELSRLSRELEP
Protocol: Protein NCBI Reference Sequences for human Epac1 and Epac2 are NP_006096 and NP_008954, respectively. Recombinant human Epac1 (residues 149-881), deleted of its Dishevelled, Egl-10, and Pleckstrin (DEP) domain, and human Rap1A were produced with GST as a fusion tag (D. Courilleau et al., Identification of a tetrahydroquinoline analog as a pharmacological inhibitor of the cAMP-binding protein Epac, J. Biol. Chem. 287 (2012) 44192-44202).
In vitro GDP exchange catalyzed by Epac was measured using purified recombinant Epac isoforms and Rap1A loaded with Bodipy-GDP, as described in D. Courilleau, et al (above mentioned). The GEF activity of Epac proteins was initiated by injection of the agonist. Stock solutions of CE3F4 and its analogs (12 mM in 100% DMSO) were kept at −20° C. and were diluted in assay buffer (0.67% final DMSO concentration) just before use for GDP exchange assays. The release of Bodipy-GDP was measured in real time as the decay of fluorescence. A single exponential was fit to the time-course data using the Graphpad Prism program. The initial velocity (Vi) of GDP exchange on Rap1 was calculated as described in D. Courilleau et al.).
Data are expressed as mean±S.D. Differences in quantitative variables were examined by unpaired one- or two-tailed Student's t test. EC50 and IC50 values were computed according to a four-parameters dose-response model and compared on the basis of the extra sum-of square F test, using Graphpad Prism. Two-tailed Wilcoxon matched-pair signed rank tests were performed using GraphPad Prism.

[2] = system: Iso-induced ANF-Luc transcriptional activation; test: ANF-Luc transcriptional activation (Firefly luciferase assay) in rat neonatal cardiomyocytes; type: cell-based; details: CE3F4 20 μM, 30 min pretreatment; Iso 10 μM, 8 h; FIG. 4A
Protocol: (§1) ANF and NFAT promoters were fused to the Firefly luciferase gene (ANF-Luc) (NFAT-Luc) to detect ANF and NFAT by Firefly Luciferase assay (see Materiel and Methods).
(§2) Rat neonatal cardiomyocytes were cotransfected with ANF-Luc and Epac1 or empty vector pcDNA3 as control. One day after transfection, cells were pretreated or not with CE3F4 (20 μM) for 30 min and stimulated or not with Iso (10 μM) for 8 h. Cells were then assayed for Luciferase activity. B) Iso-induced NFAT-Luc Transcriptional Activation is Blocked by CE3F4: Neonatal cardiomyocytes were transfected with NFAT-Luc. One day later cells were pretreated or not with CE3F4 (20 μM) for 30 min and stimulated or not with Iso (10 μM) for 8 h. The day after, cells were assayed for Luciferase activity.
(§3) Results were normalized to control for each experiment, and were expressed as means±S.E.M of at 4 (FIG. 4A) or 5 (FIG. 4B) independent experiments performed in triplicates.
(§4) The rat ANF promoter fused to the Firefly luciferase reporter gene (ANF-Luc) by Dr K. Knowlton, Epac and Rap1 plasmid construct (Epac1^WT) by Drs J. L. Bos and J. de Gunzburg, respectively. The Firefly luciferase reporter plasmid driven by four NFAT consensus binding sites (NFAT-Luc) was purchased from Stratagene. […]
(§5) Cells were lysed, and luminescence was detected using the Luciferase Assay System (Promega) according to the manufacturer's instructions with Tecan Infinite.

[3] = system: Iso-induced NFAT-Luc transcriptional activation; test: NFAT-Luc transcriptional activation (Firefly luciferase assay) in neonatal cardiomyocytes; type: cell-based, rat; details: CE3F4 20 μM, 30 min pretreatment; Iso 10 μM, 8 h; FIG. 4B
Protocol: as §1, §2, §3, §4, §5

CC1CCc2c(cc(Br)c(F)c2Br)N1C=O (racemic) [CE3F4]
Inhibition of GEF activity of Epac1 compared with Epac2(AB) or Epac2(B) ([1]; 50 μM racemic CE3F4, agonist 50 μM 007 or 300 μM cAMP, FIG. 6A): much more inhibited
EC50 ([1]; Epac1 GEF activity toward Rap1, Epac1 activated by 20 μM 007, mean of n=4 to 9 independent determinations): 10.7 µM
IC50 ([1]; Epac1 activated by 300 μM cAMP): 11 µM
Antagonism of cAMP-activated Epac1 GEF activity ([1]; compound 30 μM, 300 μM cAMP, FIG. 6C): stronger antagonist
Effect on Iso-induced ANF-Luc gene transcriptional activity [2]: significantly inhibited
Effect on Iso-induced NFAT transcriptional activity [3]: prevented
